The target of assay [1] is T1, human RORγt (Homo sapiens, UniProt P51449).
T1 sequence (P51449 1-497 isoform P51449-2): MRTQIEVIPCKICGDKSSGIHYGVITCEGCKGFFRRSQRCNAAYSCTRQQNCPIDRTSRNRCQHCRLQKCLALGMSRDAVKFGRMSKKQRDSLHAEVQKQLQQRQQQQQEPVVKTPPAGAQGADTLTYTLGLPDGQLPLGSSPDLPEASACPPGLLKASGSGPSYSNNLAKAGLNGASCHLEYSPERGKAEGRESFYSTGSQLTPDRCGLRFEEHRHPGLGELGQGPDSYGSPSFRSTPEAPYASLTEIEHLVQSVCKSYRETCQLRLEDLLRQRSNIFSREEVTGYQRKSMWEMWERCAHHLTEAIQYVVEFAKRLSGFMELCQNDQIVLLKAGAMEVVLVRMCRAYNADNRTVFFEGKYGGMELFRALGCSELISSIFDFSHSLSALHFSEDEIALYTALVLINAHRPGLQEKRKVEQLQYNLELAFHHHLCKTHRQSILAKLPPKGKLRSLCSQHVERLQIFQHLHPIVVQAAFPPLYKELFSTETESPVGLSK
Description: RORE Luciferase/RORγt transactivation assay (IL-17 promoter luciferase reporter in COS-7 cells). The settings on record: RORγt activity inhibition, luciferase activity in transfected COS-7 cells, 20 h. It is filed as cell-based. Also on record: V5-His (named only through the vector pcDNA3.1D/V5-His-TOPO); expressed in transfected cells; host or cells: COS-7 (monkey kidney). An outline of the steps: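 COS-7 cells co-transfected with human RORγt and luciferase reporter driven by 4.3 kb IL-17 promoter with CNS enhancer, seeded in serum-free, phenol red-free DMEM. Compounds added at 0.3% DMSO final; luciferase read by Steady-Glo luminescence. IC50 (μM) and Emax (%) reported.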
In general terms: Reporter assays use an easily measured gene product as a stand-in for the process of interest.

The target of assay [2] is T1, human RORγt. The assay can be described thus: IL-17 secretion from EL4 murine lymphoma overexpressing human RORγt. It is filed as cell-based. Details: V5-His (named only through the vector pcDNA3.1D/V5-His-TOPO); expressed in transfected cells. The settings on record: IL-17 secretion inhibition in human RORγt-transfected EL4 Tcells, PMA/ionomycin stimulation. As to the method:
Murine EL-4 lymphoma cell line overexpressing human RORγt was used in this functional assay to assess compound ability to inhibit IL-17 cytokine secretion.
EL-4 cells are maintained in a standard culture medium RPMI supplemented with 10% fetal calf serum, 1% sodium pyruvate, 1% essential amino acids and 1% antibiotics at 37° C. in a humidified atmosphere of 5% CO2 and 95% air. Culture medium was changed every 2 days. EL4 cells were transfected with a plasmid encoding hRORγt (sequence identical to published sequence NM 001001523). […] Briefly, 1 μg of DNA/1 million cells was served to transfect EL-4 cells. Cell/DNA suspension was transferred into certified cuvette and the electroporation of RORγt plasmid was carried out using appropriate Nucleofector® program.
Cells were seeded in 96 well plates at a density of 150000 cells/well then treated with compounds of this invention at indicated concentrations and incubated for 24 hours at 37° C. in a humidified atmosphere of 5% CO2 and 95% air. EL-4 cells were pretreated with test compounds (RORγ modulators) and stimulated with PMA (10 ng/mL) and ionomycin (1 μM final concentration) in the presence of test compound concentrations for additional 24 h at 37° C. in a humidified atmosphere of 5% CO2 and 95% air. Subsequently, supernatants were collected (after centrifugation at 300 g for 10 minutes) to determine the concentrations of IL-17 by HTRF (CisBio, France) or ELISA (R&D Systems Europe) according to the manufacturer's protocols.

The target in assay [3] is T2, RORγt ligand-binding domain (RORγt-LBD) (Homo sapiens, UniProt P51449).
T2 construct: 20 nM recombinantly expressed RORγ-LBD fused to GST
T2 sequence (P51449 269-508 limits assumed): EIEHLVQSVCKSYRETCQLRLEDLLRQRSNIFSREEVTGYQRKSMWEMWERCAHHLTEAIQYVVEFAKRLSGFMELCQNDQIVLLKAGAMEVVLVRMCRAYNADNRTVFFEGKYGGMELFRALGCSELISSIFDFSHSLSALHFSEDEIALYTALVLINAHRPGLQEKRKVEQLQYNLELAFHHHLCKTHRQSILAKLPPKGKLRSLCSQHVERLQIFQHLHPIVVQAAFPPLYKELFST
Description: Time-resolved FRET (TR-FRET) RORγt coactivator assay (RIP140 peptide displacement). The following applies: ligand-dependent coactivator-RORγt binding. It is filed as biochemical. An outline of the steps:
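GST-tagged RORγt-LBD (20 nM) with 30 nM biotinylated RIP140 peptide, 1 nM streptavidin-terbium and 20 nM d2-anti-GST in CHAPS buffer with DTT, EDTA, BSA; 1% DMSO. Compounds 0.3 nM–30 μM, 2 h dark, room temperature. Coactivator displacement lowers TR-FRET signal; IC50 (μM) and Emax (%) derived.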

From patent US11077115B2, “Rorgamma modulators and uses thereof” (Genfit, priority 2017, dated 2021) come the findings set out here.

One may read the IC50 as the midpoint of a concentration-inhibition curve.

Consider `COc1ccc(C(NC(=O)C2(c3ccc(N4CCS(=O)(=O)CC4)cc3)CC2)c2ccc(C)o2)c(N2CCCCCC2)c1` (stereo not drawn) [Cpd. 46, N-{[2-(azepan-1-yl)-4-methoxyphenyl](5-methylfuran-2-yl)methyl}-1-[4-(1,1-dioxo-1-thiomorpholin-4-yl)phenyl]cyclopropane-1-carboxamide], for which the results for the IC50 in assay [1], in assay [2] and in assay [3] were less than 0.1 µM, less than 1 µM and 0.1 to 1 µM, respectively.

`CC(C)CC(NC(=O)C1(c2ccc(N3CCS(=O)(=O)CC3)cc2)CC1)c1ccccc1N1CCCCC1` (stereo not drawn) [Cpd. 59, 1-[4-(1,1-dioxo-1-thiomorpholin-4-yl)phenyl]-N-[3-methyl-1-[2-(piperidin-1-yl)phenyl]butyl]cyclopropane-1-carboxamide]: the IC50 lay in the range of 1 to 10 µM in assay [1], 0.1 to 1 µM in assay [2] and 0.1 to 1 µM in assay [3].

Regarding `Cc1ccc(C(NC(=O)Cc2ccc(N3CCOCC3)nc2)c2ccc(C)o2)c(N2CCCCC2)c1` (stereo not drawn) [Cpd. 25, N-{[4-methyl-2-(piperidin-1-yl)phenyl](5-methylfuran-2-yl)methyl}-2-[6-(morpholin-4-yl)pyridin-3-yl]acetamide], the IC50 in assay [1] is 0.1 to 1 µM; in assay [2], 0.1 to 1 µM; in assay [3], less than 1 µM.

`COc1ccc(C(NC(=O)Cc2ccc(N3CCS(=O)(=O)CC3)c(C)c2)c2ccc(C)o2)c(N2CC3CC3C2)c1` (stereo not drawn) [Cpd. 16, N-[(2-{3-azabicyclo[3.1.0]hexan-3-yl}-4-methoxyphenyl)(5-methylfuran-2-yl)methyl]-2-[4-(1,1-dioxo-1-thiomorpholin-4-yl)-3-methylphenyl]acetamide]: the concentration for half-maximal inhibition (IC50) in assay [1] is 0.1 to 1 µM; in assay [2] it was less than 1 µM; in assay [3], less than 1 µM.

Consider `Cc1ccc(C(NC(=O)Cc2ccc(N3CCS(=O)(=O)CC3)c(C)c2)c2ccc(C)o2)c(C(F)(F)F)c1` (stereo not drawn) [Cpd. 10, 2-[4-(1,1-dioxo-1-thiomorpholin-4-yl)-3-methylphenyl]-N-{[4-methyl-2-(trifluoromethyl)phenyl](5-methylfuran-2-yl)methyl}acetamide], for which the IC50 in assay [1], in assay [2] and in assay [3] was 0.1 to 1 µM in each case.

For `Cc1ccc(C(NC(=O)Cc2ccc(N3CCS(=O)(=O)CC3)nc2)c2ccc(C)o2)c(N2CCCCC2)c1` (stereo not drawn) [Cpd. 27, 2-[6-(1,1-dioxo-1-thiomorpholin-4-yl)pyridin-3-yl]-N-{[4-methyl-2-(piperidin-1-yl)phenyl](5-methylfuran-2-yl)methyl}acetamide], the IC50 in assay [1] is less than 0.1 µM; in assay [2] it was less than 1 µM; in assay [3], less than 1 µM.

`Cc1ccc(C(NC(=O)Cc2ccc(N3CCS(=O)(=O)CC3)cc2C)c2ccc(C)o2)c(C)c1` (stereo not drawn) [Cpd. 19, N-[(2,4-dimethylphenyl)(5-methylfuran-2-yl)methyl]-2-[4-(1,1-dioxo-1-thiomorpholin-4-yl)-2-methylphenyl]acetamide]: the IC50 in assay [1] is less than 0.1 µM; in assay [2] it was less than 1 µM; in assay [3], less than 1 µM.

Consider `Cc1ccc(C(NC(=O)C2(c3ccc(N4CCS(=O)(=O)CC4)c(C)n3)CC2)c2ccc(C)o2)c(C)c1` (stereo not drawn) [Cpd. 71, N-[(2,4-dimethylphenyl)(5-methylfuran-2-yl)methyl]-1-[5-(1,1-dioxo-1-thiomorpholin-4-yl)-6-methylpyridin-2-yl]cyclopropane-1-carboxamide], for which the IC50 was less than 0.1 µM in assay [1], 0.1 to 1 µM in assay [2] and less than 1 µM in assay [3].

For `Cc1ccc(C(NC(=O)C2(c3cnc(N4CCS(=O)(=O)CC4)nc3)CC2)c2ccc(C)o2)c(C)c1` (stereo not drawn) [Cpd. 48, N-[(2,4-dimethylphenyl)(5-methylfuran-2-yl)methyl]-1-[2-(1,1-dioxo-1-thiomorpholin-4-yl)pyrimidin-5-yl]cyclopropane-1-carboxamide], the concentration for half-maximal inhibition (IC50) in assay [1] was less than 0.1 µM; in assay [2] it was less than 1 µM; in assay [3] it was less than 1 µM.

Take `COc1ccc(C(NC(=O)Cc2ccc(N3CCS(=O)(=O)CC3)c(C)c2)c2ccc(C)o2)c(N(C)C)c1` (stereo not drawn) [Cpd. 15, N-{[2-(dimethylamino)-4-methoxyphenyl](5-methylfuran-2-yl)methyl}-2-[4-(1,1-dioxo-1-thiomorpholin-4-yl)-3-methylphenyl]acetamide]: the IC50 in assay [1] is 0.1 to 1 µM; in assay [2], less than 1 µM; in assay [3], less than 1 µM.

Consider `Cc1ccc(C(NC(=O)C2(c3ccc(N4CCS(=O)(=O)CC4)cc3)CC2)c2ccc(C)o2)c(N2CCCCC2)c1` (stereo not drawn) [Cpd. 32, 1-[4-(1,1-dioxo-1-thiomorpholin-4-yl)phenyl]-N-{[4-methyl-2-(piperidin-1-yl)phenyl](5-methylfuran-2-yl)methyl}cyclopropane-1-carboxamide], for which the IC50 in assay [1] was less than 0.1 µM; in assay [2], less than 1 µM; in assay [3], 0.1 to 1 µM.

Consider `Cc1ccc(C(NC(=O)C2(c3ccc(N4CCS(=O)(=O)CC4)cc3)CC2)c2ccc(Cl)o2)c(C)c1` (stereo not drawn) [Cpd. 66, N-[(5-chlorofuran-2-yl)(2,4-dimethylphenyl)methyl]-1-[4-(1,1-dioxo-1-thiomorpholin-4-yl)phenyl]cyclopropane-1-carboxamide], for which the values for the IC50 in assay [1], in assay [2] and in assay [3] were less than 0.1 µM, less than 1 µM and less than 1 µM, respectively.

For `Cc1ccc(C(NC(=O)Cc2cc(N3CCS(=O)(=O)CC3)ccc2C)c2ccc(C)o2)c(N2CC3CC3C2)c1` (stereo not drawn) [Cpd. 28, N-[(2-{3-azabicyclo[3.1.0]hexan-3-yl}-4-methylphenyl)(5-methylfuran-2-yl)methyl]-2-[5-(1,1-dioxo-1-thiomorpholin-4-yl)-2-methylphenyl]acetamide], the results for the IC50 in assay [1], in assay [2] and in assay [3] were 0.1 to 1 µM, 0.1 to 1 µM and less than 1 µM, respectively.

With `Cc1ccc(C(NC(=O)Cc2ccc(N3CCS(=O)(=O)CC3)cc2C)c2ccc(C)o2)c(Br)c1` (stereo not drawn) [Cpd. 21, N-[(2-bromo-4-methylphenyl)(5-methylfuran-2-yl)methyl]-2-[4-(1,1-dioxo-1-thiomorpholin-4-yl)-2-methylphenyl]acetamide], the IC50 in assay [1] is less than 0.1 µM; in assay [2] it was 0.1 to 1 µM; in assay [3] it was less than 1 µM.

With `Cc1ccc(C(NC(=O)C2(c3cnc(N4CCS(=O)(=O)CC4)nc3)CC2)c2ccc(Cl)cc2Cl)o1` (stereo not drawn) [Cpd. 54, N-[(2,4-dichlorophenyl)(5-methylfuran-2-yl)methyl]-1-[2-(1,1-dioxo-1-thiomorpholin-4-yl)pyrimidin-5-yl]cyclopropane-1-carboxamide], the figures for the IC50 in assay [1], in assay [2] and in assay [3] were 0.1 to 1 µM, 0.1 to 1 µM and less than 1 µM, respectively.

For `Cc1ccc(C(NC(=O)C2(c3cnc(N4CCS(=O)(=O)CC4)nc3)CC2)c2ccc(C)o2)c(Cl)c1` (stereo not drawn) [Cpd. 52, N-[(2-chloro-4-methylphenyl)(5-methylfuran-2-yl)methyl]-1-[2-(1,1-dioxo-1-thiomorpholin-4-yl)pyrimidin-5-yl]cyclopropane-1-carboxamide], the IC50 is 1 to 10 µM in assay [1], 0.1 to 1 µM in assay [2] and less than 1 µM in assay [3].
